This is an account of results in PubChem BioAssay (NCI).

Common to all, as to assay: NCI tumour cell line growth inhibition, 48 h
The test system of assay [1] is KM12 colon.
For assay [2], the system named is CAKI-1 renal.
Assay [3] deals with HCT-116 colon.
Assay [4] relates to SF-295 CNS.
In assay [5] the test system is NCI/ADR-RES ovarian.
In assay [6] the test system is MOLT-4 leukemia.
The test system of assay [7] is SNB-75 CNS.
The subject of assay [8] is NCI-H226 lung.
In assay [9] the test system is UACC-257 melanoma.
Assay [10] relates to PC-3 prostate.

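Results reflect a 48-hour exposure of cells in 96-well plates to compound at five concentrations. GI50 = concentration required for 50% inhibition of growth. TGI: concentration producing complete growth inhibition.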

In the case of `N=C(N)c1ccc(-c2ccc(-c3ccco3)o2)cc1F`, the GI50 was 1920 nM in [1]; 1.78 µM in [2]; 1690 nM in assay [3]; 1.67 µM in [4]; 2.66 µM in assay [5]; 2.27 µM in assay [6]. Also, the GI50 is 1.66 µM in assay [7], 2.61 µM in [8] and 1590 nM in assay [9]. Besides, the TGI in assay [1] came out at 3.62 µM; in assay [2], 4.64 µM; in [3], 3.49 µM; in [4] it was 3.81 µM; in assay [5], 10.9 µM; in [6] it was 5.22 µM. Further, the figures for the TGI in [7], in assay [8] and in assay [9] were 7.23 µM, 13.6 µM and 3.08 µM, respectively.

Take `C[C@H]1[C@H](C)CC[C@]2(C(=O)O)CC[C@]3(C)C(=CC[C@@H]4[C@@]5(C)CC[C@H](OC(=O)/C=C\c6ccc(O)cc6)C(C)(C)[C@@H]5CC[C@]43C)[C@H]12`: the GI50 was 3.71 µM in [2]; 1530 nM in assay [3]; 3.03 µM in assay [4]; 3.02 µM in assay [5]; 4.56 µM in [6]; 22.3 µM in [7]. In addition, the GI50 was 4.55 µM in assay [8] and 1460 nM in assay [9]. Moreover, the TGI in assay [2] is 15.6 µM; in [3], 3.98 µM; in [4], 31.2 µM; in assay [5], 15 µM; in assay [6], 19.7 µM; in [7], 45.9 µM. Moreover, the TGI worked out at 26.3 µM in [8] and 8.49 µM in [9].

On to `O=c1[nH]c(C2CCCCC2)nc2cc(Cl)ccc12`, for which the TGI in [1], in [2], in assay [3], in assay [4], in assay [6] and in assay [7] was above 100 µM in each case. The TGI in assay [8] and in assay [9] was above 100 µM in each case.

Regarding `Cc1ccccc1C(C#N)/C(=N/NC(=O)C(=O)NN)C(=O)Nc1cccc(C(F)(F)F)c1` (stereo not drawn), the TGI in assay [1], in assay [2], in assay [3], in assay [4], in assay [6] and in assay [7] was above 100 µM throughout. The TGI in assay [8] and in assay [9] was above 100 µM throughout.

Take `CC(C)(C)C1CCN(C(=O)c2ccccc2)CC1`: the TGI in [1], in assay [3], in [4], in [6], in assay [7] and in [8] was above 100 µM throughout. Besides, the TGI in [9] is above 100 µM.

`O=c1nc2[nH]nc(-c3ccccc3)c2n[nH]1`: the TGI in [1], in assay [2], in assay [3], in assay [4], in assay [6] and in assay [8] was above 100 µM throughout. The same molecule showed a TGI in assay [9] above 100 µM.

For `O=CN/C=C/c1ccccc1O`, the TGI in assay [1], in assay [2], in assay [3], in assay [4], in assay [6] and in [7] was above 100 µM throughout. Besides, the TGI in assay [8] and in assay [9] was above 100 µM in each case.

On to `CC1=C(C(=O)Nc2ccc(Cl)c(Cl)c2)C(c2cccc(O)c2)NC(=S)N1` (stereo not drawn), for which the GI50 in assay [1] was 7770 nM; in assay [2], 14.4 µM; in assay [3], 18100 nM; in assay [4] it was 8.63 µM; in [6], 16.8 µM; in assay [10] it was 9.54 µM. Moreover, the GI50 was 11.8 µM in assay [7], 12 µM in assay [8] and 12500 nM in assay [9]. Moreover, the TGI is 16.6 µM in assay [1]; 38.5 µM in assay [2]; above 50 µM in assay [3]; 17.6 µM in assay [4]; above 50 µM in assay [6]; 31.4 µM in assay [10]. Besides, the TGI is 47.8 µM in [7], 30.8 µM in [8] and above 50 µM in assay [9].

Consider `COC(C(=O)[C@@H](O)[C@@H](C)O)[C@@H]1Cc2cc3cc(O[C@H]4C[C@@H](O[C@H]5C[C@@H](O)[C@H](O)C(C)O5)[C@H](O)C(C)O4)c(C)c(O)c3c(O)c2C(=O)[C@H]1O[C@H]1C[C@@H](O[C@H]2C[C@@H](O[C@H]3C[C@@H](O)[C@@H](O)C(C)O3)[C@@H](O)C(C)O2)[C@H](O)C(C)O1` (stereo partly drawn), for which the GI50 in [1] was 207 nM; in [2], 5.78 µM; in assay [3], 275 nM; in assay [4], 0.196 µM; in [5] it was above 32.5 µM; in [6], 1.04 µM. Moreover, the GI50 in [10] was 0.914 µM; in assay [7], 0.165 µM; in assay [9], 295 nM. The TGI is 11.3 µM in assay [1]; above 32.5 µM in [2]; above 32.5 µM in [3]; above 32.5 µM in assay [4]; above 32.5 µM in assay [5]; above 32.5 µM in assay [6]. For the same molecule, the TGI was above 32.5 µM in assay [10], 3.7 µM in [7] and 2.04 µM in assay [9].

Consider `COC(=O)c1cc(O)ccc1NC(=O)c1ccc(O)cc1`, for which the TGI in [1], in [2], in assay [3], in [4], in assay [6] and in assay [7] was above 100 µM in each case. In addition, the TGI in [8] and in assay [9] was above 100 µM in each case.

In the case of `COc1ccc(OC)c2c3c(ncc12)-c1cc2c(cc1C3)OCO2`, the GI50 in assay [1] is above 100000 nM; in [2] it was above 100 µM; in assay [3], 249 nM; in [4], 27 µM; in [5], above 100 µM; in [10], above 100 µM. The GI50 is above 100 µM in assay [7] and 38500 nM in assay [9]. Further, the TGI in [1], in [2], in assay [3], in assay [4], in assay [5] and in [10] was above 100 µM throughout. The TGI in assay [7] and in assay [9] was above 100 µM throughout.

Take `COc1cc([C@@H]2c3cc4c(cc3[C@@H](NC(=O)c3ccc([N+](=O)[O-])cc3)C3COC(=O)[C@@H]32)OCO4)cc(OC)c1O` (stereo partly drawn): the TGI in [1] worked out at 4.19 µM; in assay [2], 8.42 µM; in assay [3], 5.32 µM; in assay [4], 11.5 µM; in [6], 1.31 µM; in [7], 4.86 µM. The values for the TGI in [8] and in assay [9] were 1.82 µM and 59.6 µM, respectively.

For the molecule `[O-][N+]1=C(c2ccccc2)COc2ccccc21`, the TGI in [1], in assay [2], in assay [3], in assay [4], in assay [6] and in assay [7] was above 100 µM each time. Besides, the TGI in assay [8] and in [9] was above 100 µM throughout.

For the molecule `C/C(CC(=O)Nc1ccc([N+](=O)[O-])cc1)=N/N=C(N)N`, the TGI in [1], in assay [3], in assay [4], in [6], in assay [7] and in assay [8] was above 100 µM each time. The molecule also returned a TGI in [9] above 100 µM.

For `Cc1cc2c(=O)cc(-c3ccc(C(=O)O)cc3)oc2c(C(=O)O)c1C`, the TGI in assay [1], in assay [2], in assay [3], in [4], in assay [6] and in [7] was above 100 µM each time. For the same molecule, the TGI in [8] and in assay [9] was above 100 µM throughout.

For the molecule `Clc1ccc(CCn2cncn2)c(Cl)c1`, the TGI in [1], in assay [2], in assay [3], in [4], in [6] and in [7] was above 100 µM in each case. Further, the TGI in assay [8] and in assay [9] was above 100 µM in each case.

With `Cn1c(-c2ccccc2)c/c(=N\NS(C)(=O)=O)c2cc(S(=O)(=O)O)ccc21`, the TGI in assay [1], in assay [2], in assay [3], in assay [4], in assay [6] and in [7] was above 100 µM each time. The TGI in assay [8] and in assay [9] was above 100 µM each time.

Take `C=C1CCC2C(C)(CO)C(O)CCC2(C)C1CC(O)C1=CCOC1=O` (stereo not drawn): the TGI in assay [1] was above 100 µM; in assay [2] it was above 100 µM; in [3], 73.3 µM; in assay [4], above 100 µM; in assay [6] it was above 100 µM; in assay [7], above 100 µM. Besides, the TGI in [8] and in assay [9] was above 100 µM in each case.

On to `O=[N+]([O-])c1ccc(C2N3CCCCC3[C@@H]3c4[nH]c5ccccc5c4CCN23)cc1` (stereo partly drawn), for which the TGI in assay [2] was above 100 µM; in [3] it was 19.7 µM; in [4], above 100 µM; in assay [6] it was 49.6 µM; in assay [7], 3.29 µM; in assay [9], 41.2 µM.

As to `O=C(CCc1cc(-c2ccco2)n(-c2ccc([N+](=O)[O-])cc2[N+](=O)[O-])n1)Nc1ccccc1`, the TGI in assay [1], in assay [2], in assay [3], in assay [4], in assay [6] and in [7] was above 100 µM each time. For the same molecule, the TGI in assay [8] and in assay [9] was above 100 µM each time.

`COC(=O)/C(Cl)=C1/CC1COCc1ccccc1` (stereo not drawn): the TGI in assay [1] is 77.4 µM; in assay [2], 52.4 µM; in assay [4] it was above 100 µM; in assay [6], 53.5 µM; in [7], above 100 µM; in [8] it was 81.9 µM. Further, in assay [9], the TGI is above 100 µM.

In the case of `Cc1ccc(S(=O)(=O)NC(=O)Nc2nc(Cl)cc(Cl)n2)cc1`, the TGI in assay [1], in assay [2], in assay [3], in assay [4], in assay [6] and in assay [7] was above 100 µM throughout. For the same molecule, the TGI in assay [8] and in [9] was above 100 µM in each case.

Take `O=C(Cc1nc2ccccc2s1)NC12CC3CC(CC(C3)C1)C2`: the TGI in assay [1], in [2], in assay [3], in [4], in assay [6] and in assay [7] was above 100 µM in each case. For the same molecule, the TGI in assay [8] and in assay [9] was above 100 µM in each case.

Consider `COC(=O)CCC(=O)C(C#N)c1ccc(Cl)cc1Cl` (stereo not drawn), for which the TGI in [1], in assay [2], in [3], in assay [4], in [6] and in assay [7] was above 100 µM throughout. Further, the TGI in assay [8] and in assay [9] was above 100 µM in each case.

On to `C/C(CN1C(=O)c2ccccc2C1=O)=N\NS(C)(=O)=O`, for which the TGI in assay [1], in assay [2], in assay [3], in assay [4], in assay [6] and in assay [7] was above 100 µM throughout. Besides, the TGI in assay [8] and in [9] was above 100 µM each time.

In the case of `N#Cc1ccccc1/C=N/O`, the TGI was above 100 µM in assay [1]; above 100 µM in assay [2]; above 61.6 µM in assay [3]; above 100 µM in [4]; above 100 µM in [6]; above 100 µM in assay [7]. Moreover, the TGI in assay [8] and in [9] was above 100 µM each time.
